# ChEMBL document CHEMBL1147913, “Na+-glucose cotransporter (SGLT) inhibitory flavonoids from the roots of Sophora flavescens” (Bioorg Med Chem, 2007)
# What was measured:
# [1] = target: T1, Sodium/glucose cotransporter 2 (Homo sapiens, UniProt P31639); experiment: Inhibition of human SGLT2 expressed in COS1 cells assessed as [14C]methyl-alpha-D-glucopyranoside uptake; assay type: cell-based, COS-1
# T1 sequence (P31639 whole entry): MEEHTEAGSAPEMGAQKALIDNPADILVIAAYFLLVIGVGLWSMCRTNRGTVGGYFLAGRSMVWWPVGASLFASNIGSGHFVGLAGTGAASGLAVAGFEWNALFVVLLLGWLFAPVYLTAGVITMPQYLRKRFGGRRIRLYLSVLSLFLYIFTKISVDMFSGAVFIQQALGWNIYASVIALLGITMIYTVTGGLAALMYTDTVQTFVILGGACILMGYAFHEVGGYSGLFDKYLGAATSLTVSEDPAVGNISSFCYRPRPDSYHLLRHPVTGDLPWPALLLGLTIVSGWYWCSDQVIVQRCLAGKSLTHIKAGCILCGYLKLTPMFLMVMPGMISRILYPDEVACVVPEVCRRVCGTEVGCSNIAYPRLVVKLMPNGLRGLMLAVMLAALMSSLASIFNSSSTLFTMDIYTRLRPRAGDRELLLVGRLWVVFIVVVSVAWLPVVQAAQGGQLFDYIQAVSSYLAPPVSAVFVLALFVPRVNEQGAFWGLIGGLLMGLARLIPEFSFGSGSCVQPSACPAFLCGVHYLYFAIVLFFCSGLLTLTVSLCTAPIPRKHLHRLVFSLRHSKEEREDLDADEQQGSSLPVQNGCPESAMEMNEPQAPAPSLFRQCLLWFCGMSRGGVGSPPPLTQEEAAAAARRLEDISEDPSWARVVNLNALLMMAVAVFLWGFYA
# [2] = target: T2, Sodium/glucose cotransporter 1 (Homo sapiens) (UniProt P13866); experiment: Inhibition of human SGLT1 expressed in COS1 cells assessed as [14C]methyl-alpha-D-glucopyranoside uptake at 50 uM; assay type: cell-based; conditions: COS-1
# T2 sequence (whole entry): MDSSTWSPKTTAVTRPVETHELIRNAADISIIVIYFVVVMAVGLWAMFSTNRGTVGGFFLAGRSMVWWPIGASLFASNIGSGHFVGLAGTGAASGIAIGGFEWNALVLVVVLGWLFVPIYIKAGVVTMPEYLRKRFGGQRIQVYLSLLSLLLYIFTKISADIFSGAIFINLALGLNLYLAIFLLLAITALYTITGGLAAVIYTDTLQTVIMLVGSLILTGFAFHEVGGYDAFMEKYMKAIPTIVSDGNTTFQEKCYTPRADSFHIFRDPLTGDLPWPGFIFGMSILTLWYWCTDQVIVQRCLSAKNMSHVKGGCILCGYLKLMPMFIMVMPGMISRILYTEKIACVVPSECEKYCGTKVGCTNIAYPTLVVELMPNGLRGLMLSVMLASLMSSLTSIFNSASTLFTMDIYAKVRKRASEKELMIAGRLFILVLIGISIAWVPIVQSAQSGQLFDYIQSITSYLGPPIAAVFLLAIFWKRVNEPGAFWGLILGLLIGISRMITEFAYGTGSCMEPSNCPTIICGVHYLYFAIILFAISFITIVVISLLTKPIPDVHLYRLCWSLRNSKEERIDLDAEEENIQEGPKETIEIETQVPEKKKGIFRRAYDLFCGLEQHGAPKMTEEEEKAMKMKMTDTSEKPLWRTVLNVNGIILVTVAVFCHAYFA
# [3] = target: T3, Sodium/glucose cotransporter 2 (Homo sapiens) (UniProt P31639); experiment: Inhibition of human SGLT2 expressed in COS1 cells assessed as [14C]methyl-alpha-D-glucopyranoside uptake at 50 uM; assay type: cell-based; conditions: COS-1
# T3 sequence (whole entry): T1 sequence (P31639 whole entry)
structure (smiles),measurement,setting,value
C=C(C)[C@H](CC=C(C)C)Cc1c(O)cc(O)c2c1O[C@H](c1ccc(O)cc1O)CC2=O [SOPHORAFLAVANONE G],IC50,[1],4.1 µM
same,inhibition,[2],99.2%
same,inhibition,[3],100%
COc1ccc(-c2coc3cc(O)ccc3c2=O)cc1,inhibition,[2],< 25%
same,inhibition,[3],75.4%
C=C(C)C(CC=C(C)C)Cc1c(O)cc(OC)c2c1O[C@H](c1ccc(O)cc1O)[C@H](O)C2=O (stereo partly drawn),inhibition,[2],58.4%
same,inhibition,[3],87.3%
C=C(C)C(CC=C(C)C)Cc1c(O)cc(OC)c2c1O[C@H](c1ccc(O)cc1O)CC2=O (stereo partly drawn) [KURARINONE],IC50,[1],1.7 µM
same,inhibition,[2],98.8%
same,inhibition,[3],99.7%
C=C(C)[C@H](CC=C(C)C)Cc1c(O)cc(OC)c(C(=O)/C=C/c2ccc(O)cc2O)c1O,inhibition,[2],71.1%
same,inhibition,[3],100%
COc1ccc2c(c1)OC[C@H]1c3cc4c(cc3O[C@@H]21)OCO4,inhibition,[2],< 25%
same,inhibition,[3],< 25%
Oc1ccc2c(c1)OC[C@H]1c3cc4c(cc3O[C@@H]21)OCO4,inhibition,[2],< 25%
same,inhibition,[3],66.5%
C=C(C)[C@H](CCC(C)(C)O)Cc1c(O)cc(OC)c2c1O[C@H](c1ccc(O)cc1O)[C@H](O)C2=O,inhibition,[2],29.7%
same,inhibition,[3],43.7%
